Source: patent US7973051B2 (Hoffman-La Roche Inc., priority 2007, dated 2011)

Biological target: T1, human liver FBPase (Homo sapiens, UniProt P09467)
T1 construct: made in house; host or cells: E. coli
T1 sequence (P09467 2-338 limits assumed): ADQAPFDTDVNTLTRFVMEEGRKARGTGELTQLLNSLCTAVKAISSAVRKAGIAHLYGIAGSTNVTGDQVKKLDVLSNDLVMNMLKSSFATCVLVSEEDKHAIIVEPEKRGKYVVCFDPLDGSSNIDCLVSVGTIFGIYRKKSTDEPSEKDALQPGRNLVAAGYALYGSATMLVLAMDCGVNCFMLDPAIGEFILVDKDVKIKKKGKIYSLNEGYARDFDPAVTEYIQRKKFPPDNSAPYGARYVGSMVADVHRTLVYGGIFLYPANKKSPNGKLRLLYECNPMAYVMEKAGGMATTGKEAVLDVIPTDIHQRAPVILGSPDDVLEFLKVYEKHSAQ
Test: FBPase assay: inorganic phosphate release (malachite green)
Type: biochemical
Details: recombinant human liver FBPase, 50 μM fructose-1,6-bisphosphate, read-out at 620 nm
Method: The following tests were carried out for evaluating the inhibitory activity of the compounds of the present invention against human liver FBPase (Swissprot Data base reference P09467, entry F16P_HUMAN).
Human liver FBPase cDNA (NM_000507) was purchased from Origene Technologies, Inc, subcloned in a vector for expression in E. Coli., and sequenced. Recombinant human liver FBPase (hlFBPase) was purified according to the following protocol that uses heat denaturation similarly to that described by El-Maghrabi et. al. [El-Maghrabi, M. R. et al. “Isolation of a human liver fructose-1,6-bisphosphatase cDNA and expression of the protein in Escherichia coli.” J Biol Chem 268:9466-9472, 1993.]. Briefly, E. coli cells, transiently expressing very high levels of soluble and active human liver FBPase, were suspended in 20 mM Tris-HCl pH 7.5, 1 mM EDTA, 1 mM DTT and were lysed by French press. The soluble extract was heat denatured at 65° C. for 5 min, and insoluble, denatured proteins were removed by centrifugation. The extract was then applied to a BioRad Macro-Prep High Q column equilibrated with 20 mM Tris-HCl pH 7.5, 1 mM EDTA, 1 mM DTT and the flow-through (containing FBPase activity) was collected and applied to a BioRad Macro-Prep HS column equilibrated with 20 mM HEPES pH 7.2, 1 mM DTT. A gradient of increasing NaCl concentration was then applied to the HS column and fractions were collected. Fractions containing active FBPase were pooled and further purified by size exclusion chromatography on a Sephacryl S200 column equilibrated in 20 mM Tris-HCl pH 7.5, 150 mM NaCl, 1 mM EDTA, 1 mM DTT. Purity of the enzyme preparation was >90% as assessed by Mass spectrometry.
Recombinant human liver FBPase (hlFBPase) activity was assayed through measuring the inorganic phosphate release that results from the hydrolysis of Fructose-1,6-bisphosphate by the enzyme. As described by Baykov A. A. et al. in [Baykov A. A et al., “Malachite Green procedure for orthophosphate determination and its use in alkaline phosphatase-based enzyme immunoassays”. Anal. Biochem., 171:266-270, 1988], inorganic phosphate can be readily quantified by spectrophotometry at 620 nm after complexation with ammonium molybdate/malachite green reagent. Enzymatic reaction was carried out with modifications of the procedure described by Wright S. W. et al. [Wright S. W. et al., “Anilinoquinazoline inhibitors of Fructose-1,6-bisphosphatase bind to a novel allosteric site: synthesis, in vitro characterization, and X-ray crystallography”. J. Med. Chem. 45:3865-3877, 2002]. Specifically, the reaction was carried out in 96 well plates in a final volume of 100 μl in the presence or in the absence of allosteric inhibitors. Reaction was started adding 25 ng of hlFBPase to the reaction mixture containing 50 mM HEPES-KOH buffer pH 7.2, 2 mM MgCl2, 2 mM EDTA, 1 mM DTT, 50 μM fructose-1,6-bisphosphate and 1% DMSO. After 50 minutes incubation at room temperature, the phosphate released was allowed to form a colored complex for 10 min by adding 150 μl of ammonium molybdate/malachite green reagent containing 0.03% malachite green, 0.2% ammonium molybdate, 0.05% Triton X-100 and 0.7 M H2SO4 in water that was stirred for 30 min at room temperature and filtered through 0.2 μm filter. Under these conditions, the assay was linear with time and able to detect FBPase inhibition after spectrophotometric read-out at 620 nm.

Compound | IC50 [nM]
CC(=O)OCCc1sc(S(=O)(=O)NC(=O)Nc2nc(-c3ccccc3)c(C)s2)cc1C [Example 73, 2-[3-Methyl-5-({[(5-methyl-4-phenyl-1,3-thiazol-2-yl)carbamoyl]amino}sulfonyl)-2-thienyl]ethyl acetate] | 128
Cn1cc(S(=O)(=O)NC(=O)Nc2ncc(Br)s2)c2cccc(OCc3ccccc3)c21 [Example 41, 7-(Benzyloxy)-N-[(5-bromo-1,3-thiazol-2-yl)carbamoyl]-1-methyl-1H-indole-3-sulfonamide] | 124
COc1cccc2c(S(=O)(=O)NC(=O)Nc3ncc(Br)s3)c[nH]c12 [Example 43, N-[(5-bromo-1,3-thiazol-2-yl)carbamoyl]-7-methoxy-1H-indole-3-sulfonamide] | 4060
Cc1ccc2sc(S(=O)(=O)NC(=O)Nc3ncc(Br)s3)cc2c1 [Example 1, N-[(5-Bromo-1,3-thiazol-2-yl)carbamoyl]-5-methyl-1-benzothiophene-2-sulfonamide] | 89
O=C(Nc1ncc(Br)s1)NS(=O)(=O)c1csc2ccccc12 [Example 4, N-[(5-Bromo-1,3-thiazol-2-yl)carbamoyl]-1-benzothiophene-3-sulfonamide] | 212
COCCc1sc(S(=O)(=O)NC(=O)Nc2nc3ccc(OC)nc3s2)cc1C [Example 90, 5-(2-Methoxyethyl)-N-[(5-methoxy[1,3]thiazolo[5,4-b]pyridin-2-yl)carbamoyl]-4-methylthiophene-2-sulfonamide] | 842
O=C(Nc1ncc(Br)s1)NS(=O)(=O)c1cc2ccccc2s1 [Example 2, N-[(5-Bromo-1,3-thiazol-2-yl)carbamoyl]-1-benzothiophene-2-sulfonamide] | 434
Cc1cc(S(=O)(=O)NC(=O)Nc2nc(-c3ccccc3)c(C)s2)cs1 [Example 65, 5-Methyl-N-[(5-methyl-4-phenyl-1,3-thiazol-2-yl)carbamoyl]thiophene-3-sulfonamide] | 300
Cc1cc(S(=O)(=O)NC(=O)Nc2nc(C)c(SC(F)(F)F)s2)sc1CCO [Example 98, 6-(2-Hydroxyethyl)-4-methyl-N-({4-methyl-5-[(trifluoromethyl)thio]-1,3-thiazol-2-yl}carbamoyl)thiophene-2-sulfonamide] | 177
CCc1sc(NC(=O)NS(=O)(=O)c2cc(C)c(CCOC)s2)nc1C [Example 60, N-[(5-Ethyl-4-methyl-1,3-thiazol-2-yl)carbamoyl]-5-(2-methoxyethyl)-4-methylthiophene-2-sulfonamide] | 341
O=C(Nc1ncc(Br)s1)NS(=O)(=O)c1cc2ccccc2[nH]1 [Example 20, N-[(5-Bromo-1,3-thiazol-2-yl)carbamoyl]-1H-indole-2-sulfonamide] | 134
COc1cnc(NC(=O)NS(=O)(=O)c2cn(C)c3c(OCCOC(C)=O)cccc23)s1 [Example 46, 2-{[3-({[(5-Methoxy-1,3-thiazol-2-yl)carbamoyl]amino}sulfonyl)-1-methyl-1H-indol-7-yl]oxy}ethyl acetate] | 3500
Cc1cccc2cc(S(=O)(=O)NC(=O)Nc3ncc(Br)s3)sc12 [Example 14, N-[(5-Bromo-1,3-thiazol-2-yl)carbamoyl]-7-methyl-1-benzothiophene-2-sulfonamide] | 161
COc1cccc2cc(S(=O)(=O)NC(=O)Nc3ncc(Br)s3)n(C)c12 [Example 40, N-[(5-bromo-1,3-thiazol-2-yl)carbamoyl]-7-methoxy-1-methyl-1H-indole-2-sulfonamide] | 329
COCCc1sc(S(=O)(=O)NC(=O)Nc2nc(-c3ccccc3)c(C)s2)cc1C [Example 66, 5-(2-Methoxyethyl)-4-methyl-N-[(5-methyl-4-phenyl-1,3-thiazol-2-)carbamoyl]thiophene-2-sulfonamide] | 160
COc1ccc2scc(S(=O)(=O)NC(=O)Nc3ncc(Br)s3)c2c1 [Example 7, N-[(5-Bromo-1,3-thiazol-2-yl)carbamoyl]-5-methoxy-1-benzothiophene-3-sulfonamide] | 122
COCCn1cc(S(=O)(=O)NC(=O)Nc2ncc(Br)s2)c2ccccc21 [Example 31, N-[(5-Bromo-1,3-thiazol-2-yl)carbamoyl]-1-(2-methoxyethyl)-1H-indole-3-sulfonamide] | 2250
CCc1sc(NC(=O)NS(=O)(=O)c2cc(C)c(CCO)s2)nc1-c1ccccc1 [Example 81, N-[(5-Ethyl-4-phenyl-1,3-thiazol-2-yl)carbamoyl]-5-(2-hydroxyethyl)-4-methylthiophene-2-sulfonamide] | 102
O=C(Nc1ncc(Br)s1)NS(=O)(=O)c1cc2cccc(-c3ccncc3)c2s1 [Example 22, N-[(5-Bromo-1,3-thiazol-2-yl)carbamoyl]-7-pyridin-4-yl-1-benzothiophene-2-sulfonamide] | 440
COCCc1sc(S(=O)(=O)NC(=O)Nc2nc(C)c(OC)s2)cc1C [Example 96, 5-(2-Methoxyethyl)-N-[(5-methoxy-4-methyl-1,3-thiazol-2-yl)carbamoyl]-4-methylthiophene-2-sulfonamide] | 637
CCc1sc(NC(=O)NS(=O)(=O)c2cc(C)c(CCOC)s2)nc1C(C)C [Example 77, N-[(5-Ethyl-4-isopropyl-1,3-thiazol-2-yl)carbamoyl]-5-(2-methoxyethyl)-4-methylthiophene-2-sulfonamide] | 366
COc1ccc2nc(NC(=O)NS(=O)(=O)c3cc(C)c(CCO)s3)sc2n1 [Example 56, 5-(2-Hydroxyethyl)-N-[(5-methoxy[1,3]thiazolo[5,4-b]pyridin-2-yl)carbamoyl]-4-methylthiophene-2-sulfonamide] | 534
Cc1c(S(=O)(=O)NC(=O)Nc2ncc(Br)s2)sc2ccc(F)cc12 [Example 3, N-[(5-Bromo-1,3-thiazol-2-yl)carbamoyl]-5-fluoro-3-methyl-1-benzothiophene-2-sulfonamide] | 2730
CCc1sc(NC(=O)NS(=O)(=O)c2cc(C)c(CCOC(C)=O)s2)nc1-c1ccccc1 [Example 80, 2-[5-({[(5-Ethyl-4-phenyl-1,3-thiazol-2-yl)carbamoyl]amino}sulfonyl)-3-methyl-2-thienyl]ethyl acetate] | 161
Cn1cc(S(=O)(=O)NC(=O)Nc2ncc(Br)s2)c2cc(F)ccc21 [Example 26, N-[(5-Bromo-1,3-thiazol-2-yl)carbamoyl]-5-fluoro-1-methyl-1H-indole-3-sulfonamide] | 341
CCc1nc(NC(=O)NS(=O)(=O)c2cc(C)c(CCOC)s2)sc1CC [Example 63, N-[(4,5-Diethyl-1,3-thiazol-2-yl)carbamoyl]-5-(2-methoxyethyl)-4-methylthiophene-2-sulfonamide] | 393
COc1cnc(NC(=O)NS(=O)(=O)c2cn(C)c3c(OC)cccc23)s1 [Example 44, 7-Methoxy-N-[(5-methoxy-1,3-thiazol-2-yl)carbamoyl]-1-methyl-1H-indole-3-sulfonamide] | 1320
COC(=O)c1cccc2c(S(=O)(=O)NC(=O)Nc3ncc(Br)s3)cn(C)c12 [Example 32, Methyl 3-({[(5-bromo-1,3-thiazol-2-yl)carbamoyl]amino}sulfonyl)-1-methyl-1H-indole-7-carboxylate] | 653
COCCOc1cccc2cc(S(=O)(=O)NC(=O)Nc3ncc(Br)s3)sc12 [Example 38, N-[(5-bromo-1,3-thiazol-2-yl)carbamoyl]-7-(2-methoxyethoxy)-1-benzothiophene-2-sulfonamide] | 179
